experiment: Room temperature evaporation rate: rate of weight loss in a stream of 25° C. nitrogen relative to n-butyl acetate; type: physicochemical; settings: not given
Procedure: Most compounds released by manufacturing processes affect the environment in some manner. […] The room temperature evaporation rates of some of the ILs described in the present invention were compared to several well known compounds by measuring the rate of weight loss in a stream of 25° C. nitrogen relative to the rate of weight loss of n-butyl acetate under the same conditions.

Compound | Evaporation Rate (n-Butyl Acetate = 1)
CCCCCC [hexane] | 8.9
CCCCC(CC)C(=O)[O-].CCCCC(CC)C(=O)[O-].[Zn+2] (stereo not shown) [Zn(2eh)2, zinc (II) 2-ethylhexanoate] | <0.001
OCCO [ethylene glycol] | <0.01

same assay, conditions: rate of weight loss in a stream of 25° C. nitrogen, relative to n-butyl acetate under the same conditions

Compound | Evaporation Rate (n-Butyl Acetate = 1)
CC(C)=O [acetone] | 14.4
CCCCC(CC)C(=O)O (stereo not shown) [H2eh, 2-ethylhexanoic acid] | 0.003
Cc1ccccc1 [toluene] | 1.9
CCCCO [n-Butanol] | 0.43
CCC(C)=O [methyl ethyl ketone] | 5.7
xylene | 0.8
CC(C)O [IPA] | 2.5
